Patent US20250090705A1, “STERILIZATION METHOD AND STERILIZATION DEVICE” (OSAKA UNIVERSITY, priority 2021, published 2025)
Read-outs that look alike come from different tables or passages of the source.

What was measured:
[1] = cited from earlier work
[2] = cited from earlier work; remark: listed apart in the source
[3] = system: bacterial spores (Geobacillus stearothermophilu); test: first and second sterilization tests, large container (90 L), nebulizer method, BI in sterilization bag, CFU assay; type: cell-based; conditions: 90 L container, 10^5 CFU spores in glassine paper bag
Method: (§1) The following description will discuss, with reference to FIGS. 2 to 5, results of sterilization tests each using the sterilization device 1 that generates peroxynitric acid gas by a nebulizer method. Here, the sterilization tests were carried out with use of the sterilization device 1 that includes (i) the peroxynitric acid gas generation section 10, which is as illustrated in FIG. 1 and which generates the peroxynitric acid gas by a nebulizer method and (ii) the sterilization treatment section 20 in which the sterilization container 21 having a capacity of 90 L is used. The peroxynitric acid solution was used in an amount of approximately 15 mL per minute in the peroxynitric acid gas generation section 10. The peroxynitric acid mist and the peroxynitric acid gas in the sterilization container 21 were configured to be recirculated into the second container 12 instead of being discharged outside through the air outlet 24.
FIG. 2 is a graph showing a result of a first sterilization test using a large container. FIG. 3 is a graph showing a result of a second sterilization test using a large container. […]

[4] = system: bacterial spores (Geobacillus stearothermophilu); test: third and fourth sterilization tests, large container (90 L), BI in sterilization bag, on-off test (turbidity of culture solution); type: cell-based; conditions: 90 L container, 10^6 CFU spores in glassine paper bag
Method: as §1
FIG. 4 is a table showing a result of a third sterilization test using a large container. FIG. 5 is a table showing a result of a fourth sterilization test using a large container. The BI is one in which 10^6 CFU bacterial spores (Geobacillus stearothermophilu) are supported on a stainless steel disk and the stainless steel disk is in the sterilization bag 23 made of glassine paper. […]

[5] = system: bacterial spores (Geobacillus stearothermophilu); test: fifth sterilization test, small container (approximately 0.3 L), BI in sterilization bag, CFU assay, survival curves, D value; type: cell-based
Source text: Subsequently, the following description will discuss, with reference to FIGS. 6 and 7, a result of a sterilization test using the sterilization device 1 that generates peroxynitric acid gas by a nebulizer method. The capacity of the sterilization container 21 was as large as 90 L in the sterilization tests in FIGS. 2 to 5, whereas the capacity of the sterilization container 21 was as small as approximately 0.3 L in the sterilization test in FIGS. 6 and 7. The peroxide solution was used in an amount of approximately 3 mL per minute in the peroxynitric acid gas generation section 10. The peroxynitric acid gas in the sterilization container 21 is discharged outside through the air outlet 24 instead of being recirculated into the second container 12.
FIG. 6 is a graph showing a result of a fifth sterilization test using a small container. The BI is one in which 10^5 CFU bacterial spores (Geobacillus stearothermophilu) are supported on a stainless steel disk and the stainless steel disk is in the sterilization bag 23 made of glassine paper. […]
FIG. 7 is a table showing microbicidal activity determined from each of the survival curves S10, S100, S200, S600a, and S600b that are shown in FIG. 6. […] A D value [s] is a time which is calculated from a survival curve and at which the number of living microorganisms reaches 1/10. […]

[6] = system: spore solution (Bacillus subtilis) on pig skin; test: sixth sterilization test, contaminated pig skin model, CFU assay; type: cell-based; conditions: peroxynitric acid solution 100 mM, approximately 0.3 L container, Bacillus subtilis spores
Source text: Subsequently, the following description will discuss, with reference to FIG. 8, a result of a sterilization test using the sterilization device 1 that generates peroxynitric acid gas by a nebulizer method. In the sterilization test shown in FIG. 8, with the aim of application to biological disinfection, a contaminated pig skin model was sterilized by the nebulizer method.
FIG. 8 is a graph showing a result of a sixth sterilization test using a contaminated pig skin model. A 10^6 CFU spore solution (Bacillus subtilis) was applied to pig skin that had been shaved, cleaned, and subjected to sterilization treatment in advance, and the pig skin was dried so as to be a contaminated model. Such a contaminated pig skin model was regarded as the sterilization target 22 and housed in the sterilization container 21 having a capacity of approximately 0.3 L. In so doing, a surface of the contaminated pig skin model was made perpendicular to a direction in which a gas containing the peroxynitric acid gas and the peroxynitric acid mist flowed. A molar concentration of the peroxynitric acid solution to be placed in the second container 12 was set to 100 mM. After the sterilization test, a stomachere was used to collect bacteria on not only a front surface but also a back surface of the contaminated pig skin model, and the CFU assay was carried out.

[7] = half-time of peroxynitric acid solution versus temperature; type: physicochemical; conditions: pH 2.9
Method: FIG. 10 is a graph showing half-time of a peroxynitric acid solution. As shown in the graph, the peroxynitric acid solution that has a lower temperature (which may be ambient temperature) has a longer half-time. For example, the peroxynitric acid solution that has pH of 2.9 has a half-time of 132 minutes at 2° C. of the temperature of the peroxynitric acid solution, has a half-time of 26 minutes at 10° C. of the temperature of the peroxynitric acid solution, has a half-time of 7.8 minutes at 20° C. of the temperature of the peroxynitric acid solution, has a half-time of 2 minutes at 30° C. of the temperature of the peroxynitric acid solution, and has a half-time of 0.6 minutes at 40° C. of the temperature of the peroxynitric acid solution. The half-time of the peroxynitric acid solution thus depends on temperature.

[8] = 1 atmospheric pressure, cited from earlier work
[9] = peroxynitric acid solution 10 mM
[10] = peroxynitric acid solution 600 mM

Molecule: O=[N+]([O-])O [Nitric acid, nitric acid]
- pKa [1]: approximately −1.4
- vapor pressure ([2]; 20° C.): 6.4 kPa

Molecule: O=S(=O)(O)O [Sulfuric acid, sulfuric acid]
- vapor pressure ([2]; 25° C.): 0.0067 Pa

Molecule: O=P(O)(O)O [phosphoric acid]
- vapor pressure ([2]; 20° C.): 4 Pa

Molecule: peroxynitric acid [peroxynitric acid solution]
- time in which the BI was sterilized (living microorganisms equal to or lower than detection limit) [3, 9]: 3 min
- time in which the BI was sterilized (living microorganisms equal to or lower than detection limit) [3, 10]: 1 min
- time in which the BI was sterilized (on-off test) [4, 9]: 10 min
- time in which the BI was sterilized (on-off test) [4, 10]: 1 min
- microbicidal activity from survival curves ([5]; 10, 100, 200 and 600 mM, approximately 0.3 L container, 10^5 CFU spores, CFU assay): higher molar concentration achieves higher microbicidal activity
- microbicidal activity 1/D (reciprocal of D value) ([5]; calculated from survival curves S10, S100, S200, S600a, S600b): proportional to the molar concentration
- time in which the contaminated pig skin model was sterilized [6]: 3 min
- half-time ([7]; 2° C.): 132 min
- half-time ([7]; 10° C.): 26 min
- half-time ([7]; 20° C.): 7.8 min
- half-time ([7]; 30° C.): 2 min
- half-time ([7]; 40° C.): 0.6 min
- half-time ([8]; 4.55° C. (277.7 K)): 97 s
- half-time ([8]; 24.85° C. (298 K)): 12 s
